IC50 data for 29 molecules are collected here from US20080039455A1, “PYRAZOLOPYRIMIDINES AND SALTS THEREOF, PHARMACEUTICAL COMPOSITIONS COMPRISING SAME, METHODS OF PREPARING SAME AND USES OF SAME” (priority 2006, published 2008).

In this experiment the target is T1, human recombinant ALK1 (GST fused to ALK1 intracellular domain [His142-Gln503]) (Homo sapiens, UniProt P37023).
T1 construct: GST fused to ALK1 intracellular domain [His142-Gln503]; made in house
T1 sequence (P37023 142-503): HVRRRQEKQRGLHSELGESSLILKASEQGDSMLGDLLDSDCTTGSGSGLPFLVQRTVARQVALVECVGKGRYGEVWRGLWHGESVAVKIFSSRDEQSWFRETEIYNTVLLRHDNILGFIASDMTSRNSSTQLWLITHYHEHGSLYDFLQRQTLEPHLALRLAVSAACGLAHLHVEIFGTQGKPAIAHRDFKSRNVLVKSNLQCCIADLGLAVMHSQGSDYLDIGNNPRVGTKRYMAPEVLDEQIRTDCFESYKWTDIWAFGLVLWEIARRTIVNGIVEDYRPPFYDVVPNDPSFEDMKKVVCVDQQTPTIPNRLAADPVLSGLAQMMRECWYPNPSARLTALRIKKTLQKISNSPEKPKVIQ
The experiment is described as follows: ALK1-Kinase Flashplate-Assay. The class given is biochemical. The following applies: 0.5 μM ATP, biotinylated α-casein substrate; read-out: Assay 1 (ALK1-Kinase Flashplate-Assay IC50 class). The source says: Biological Assay 1: ALK1-Kinase Flashplate-Assay
ALK1 phosphorylates serine/threonine residues of the biotinylated substrate bovine α-casein in the presence of [γ-^33P]ATP. Detection of the radiolabeled phosphorylated product is achieved by binding to streptavidine-coated Flashplates. The biotin moieties of biotinylated casein bind with high affinity to the streptavidine. The radiolabeled biotinylated casein produced by the ALK1 kinase reaction is able to generate a […] signal when strepatavidine-mediated binding occurs to the scintillant-containing surface of the Flashplates due to the close proximity of the radiolabel and the scintillant. […] The signals obtained are therefore indicative of the ALK1 kinase activity. Measurement is performed in a Perkin-Elmer TopCount or Perkin-Elmer ViewLux instrument.
Enzyme: Purified human recombinant ALK1 (GST fused to ALK1 intracellular domain [His142-Gln503]) produced in-house, aliquots stored at −80° C.;
Diluted enzyme working solution: 2.5 ng/μl ALK1 (in assay buffer) freshly prepared and chilled on ice until use.
Substrate: biotinylated bovine α-casein. Unbiotinylated casein obtained from Sigma was biotinylated by standard procedures using N-hydroxysuccinimide (NHS) ester of biotin.
Substrate working solution: 0.83 μM ATP, 1.67 μM biotinylated a-casein, 7.4 nCi [γ-^33P]ATP/μl in assay buffer
Assay plates: 384-well plates, small volume, white, Greiner (# 784075)
Flashplates: Streptavidin-coated Flashplates, Perkin Elmer (384-well # SPM410A)
Assay buffer: 50 mM Tris/HCl pH 8.0, 1 mM MnCl2, 1 mM DTT, 0.01% NP40, 0.5× Complete EDTA-free
Stop solution: 33.3 μM ATP, 33.3 mM EDTA, 0.07% Triton X-100 in PBS
Saturating buffer for Flashplates: 100 μM ATP, 0.2% Triton X-100 in PBS
Sealing tape: Greiner (# 676080)
Protocol for small volume 5 μl assay (all steps are performed at 20° C., pipetted with CyBi-Well and Multidrop Micro): • 1. 50 nl or 250 nl compound in 100% DMSO • 2. addition of 3 μl substrate working solution with CyBi-Well pipettor • 3. addition of 2 μl enzyme working solution with Multidrop Micro incubation for 60 min at room temperature • 4. addition of 15 μl Stop solution with CyBi-Well pipettor • 5. transfer of 18 μl assay mixture to Flashplates** with CyBi-Well pipettor incubation for at least 3 h at room temperature or over night at 4° C. to allow binding to the streptavidine-coated Flashplates • 6. washing the Flashplates 3 times with 50 μl PBS without Ca++ and Mg++ • 7. sealing with sealing tape • 8. Measurement in Topcount (60 sec/well) **Saturation of Flashplates: The Flashplates are preincubated for at least 1 hour with 50 μl saturating buffer. Remove 18 μl from the 50 μl and transfer 18 μl of the assay mixture to the Flashplate.
Final concentrations, calculated for 5 μl reaction volume: ALK1 5 ng/well; 1 μM biotinylated α-casein; 0.5 μM ATP; 22 nCi/well [γ-^33P]ATP; 1 mM MnCl2; 1 mM DTT; 50 mM Tris-HCl; pH 8.0; 0.01% NP40; 0.5× Complete EDTA-free; 1% or 5% DMSO.
The data were normalised (enzyme reaction without inhibitor=0% inhibition, enzyme reaction in the presence of 10 mM EDTA=100% inhibition) and IC50 values were calculated by a 4 parameter fit using an in-house software.

As usually defined, the IC50 is the midpoint of a concentration-inhibition curve.

Consider `COc1cc(-c2cnn3ccc(Nc4ccc(C)c(NS(C)(=O)=O)c4)nc23)ccc1O` [Example 151], for which the IC50 was below 1000 nM. In the case of `COc1ccc(-c2cnn3ccc(NCc4ccncc4)nc23)cc1` [Example 154, [3-(4-Methoxy-phenyl)-pyrazolo[1,5-a]pyrimidin-5-yl]-pyridin-4-ylmethyl-amine], the IC50 was 1000 to 10000 nM. As for `COc1ccc(-c2cnn3ccc(NC4CCC(O)CC4)nc23)cc1` (centres unmarked) [Example 155, 4-[3-(4-Methoxy-phenyl)-pyrazolo[1,5-a]pyrimidin-5-ylamino]-cyclohexanol], the figure is 1000 to 10000 nM; as for `Oc1cccc(-c2cnn3ccc(NC4CCC(O)CC4)nc23)c1` (centres unmarked) [Example 156, 3-[5-(4-Hydroxy-cyclohexylamino)-pyrazolo[1,5-a]pyrimidin-3-yl]-phenol], below 1000 nM. The figure for `O=C(O)/C=C/c1cccc(-c2cnn3ccc(NC4CCC(O)CC4)nc23)c1` (centres unmarked) [Example 157, (E)-3-{3-[5-(4-Hydroxy-cyclohexylamino)-pyrazolo[1,5-a]pyrimidin-3-yl]-phenyl}-acrylic acid] is 1000 to 10000 nM. Turning to `OCc1cccc(-c2cnn3ccc(NC4CCC(O)CC4)nc23)c1` (centres unmarked) [Example 158, 4-[3-(3-Hydroxymethyl-phenyl)-pyrazolo[1,5-a]pyrimidin-5-ylamino]-cyclohexanol], the IC50 lay within 1000 to 10000 nM. Turning to `COc1cc(-c2cnn3ccc(NC4CCC(O)CC4)nc23)ccc1O` (centres unmarked) [Example 160, 4-[5-(4-Hydroxy-cyclohexylamino)-pyrazolo[1,5-a]pyrimidin-3-yl]-2-methoxy-phenol], the IC50 lay in the range of 1000 to 10000 nM. The figure for `COc1ccc(-c2cnn3ccc(NCCO)nc23)cn1` [Example 164, 2-[3-(6-Methoxy-pyridin-3-yl)-pyrazolo[1,5-a]pyrimidin-5-ylamino]-ethanol] is 1000 to 10000 nM; for `COc1cc(-c2cnn3ccc(NCCO)nc23)ccc1O` [Example 165, 4-[5-(2-Hydroxy-ethylamino)-pyrazolo[1,5-a]pyrimidin-3-yl]-2-methoxy-phenol] it is below 1000 nM; for `COc1ccc(-c2cnn3ccc(NCc4cccnc4)nc23)cc1` [Example 167, [3-(4-Methoxy-phenyl)-pyrazolo[1,5-a]pyrimidin-5-yl]-pyridin-3-ylmethyl-amine] it is 1000 to 10000 nM. The figure for `Oc1cccc(-c2cnn3ccc(NCc4cccnc4)nc23)c1` [Example 168, 3-{5-[(Pyridin-3-ylmethyl)-amino]-pyrazolo[1,5-a]pyrimidin-3-yl}-phenol] is below 1000 nM. As for `OCc1cccc(-c2cnn3ccc(NCc4cccnc4)nc23)c1` [Example 170, (3-{5-[(Pyridin-3-ylmethyl)-amino]-pyrazolo[1,5-a]pyrimidin-3-yl}-phenyl)-methanol], the figure is 1000 to 10000 nM. Regarding `COc1ccc(-c2cnn3ccc(NCc4cccnc4)nc23)cn1` [Example 171, [3-(6-Methoxy-pyridin-3-yl)-pyrazolo[1,5-a]pyrimidin-5-yl]-pyridin-3-ylmethyl-amine], the IC50 was in the range of 1000 to 10000 nM.

Turning to `Cc1csc(-c2cnn3ccc(NCc4cccnc4)nc23)c1` [Example 172, [3-(4-Methyl-thiophen-2-yl)-pyrazolo[1,5-a]pyrimidin-5-yl]-pyridin-3-ylmethyl-amine], the IC50 was in the range of 1000 to 10000 nM. Consider `COc1ccc(-c2cnn3ccc(Nc4ccc(N5CCOCC5)cc4)nc23)cc1` [Example 173, [3-(4-Methoxy-phenyl)-pyrazolo[1,5-a]pyrimidin-5-yl]-(4-morpholin-4-yl-phenyl)-amine], for which the IC50 is 1000 to 10000 nM. On to `COc1cc(Nc2ccn3ncc(-c4cccc(C(N)=O)c4)c3n2)cc(OC)c1OC` [Example 176, 3-[5-(3,4,5-Trimethoxy-phenylamino)-pyrazolo[1,5-a]pyrimidin-3-yl]-benzamide], for which the IC50 fell in the range of 1000 to 10000 nM.

`COc1cccc(-c2cnn3ccc(Nc4cc(OC)c(OC)c(OC)c4)nc23)c1` [Example 178, [3-(3-Methoxy-phenyl)-pyrazolo[1,5-a]pyrimidin-5-yl]-(3,4,5-trimethoxy-phenyl)-amine]: the IC50 is 1000 to 10000 nM. The figure for `COc1cc(Nc2ccn3ncc(-c4cccc(C(C)=O)c4)c3n2)cc(OC)c1OC` [Example 179, 1-{3-[5-(3,4,5-Trimethoxy-phenylamino)-pyrazolo[1,5-a]pyrimidin-3-yl]-phenyl}-ethanone] is 1000 to 10000 nM; for `COc1cc(Nc2ccn3ncc(-c4cnn(C)c4)c3n2)cc(OC)c1OC` [Example 182, [3-(1-Methyl-1H-pyrazol-4-yl)-pyrazolo[1,5-a]pyrimidin-5-yl]-(3,4,5-trimethoxy-phenyl)-amine] it is 1000 to 10000 nM; for `Cc1ccc(Nc2ccn3ncc(-c4cccc(N)c4)c3n2)cc1NS(C)(=O)=O` [Example 186] it is 1000 to 10000 nM. As for `COc1cccc(-c2cnn3ccc(Nc4ccc(O)cc4)nc23)c1` [Example 192, 4-[3-(3-Methoxy-phenyl)-pyrazolo[1,5-a]pyrimidin-5-ylamino]-phenol], the figure is below 1000 nM; as for `CC(=O)c1cccc(-c2cnn3ccc(Nc4ccc(O)cc4)nc23)c1` [Example 193, 1-{3-[5-(4-Hydroxy-phenylamino)-pyrazolo[1,5-a]pyrimidin-3-yl]-phenyl}-ethanone], 1000 to 10000 nM.

Take `Cn1cc(-c2cnn3ccc(Nc4ccc(O)cc4)nc23)cn1` [Example 194, 4-[3-(1-Methyl-1H-pyrazol-4-yl)-pyrazolo[1,5-a]pyrimidin-5-ylamino]-phenol]: the IC50 was in the range of 1000 to 10000 nM.

In the case of `COc1cccc(-c2cnn3ccc(Nc4ccc(OC)nc4)nc23)c1` [Example 196, [3-(3-Methoxy-phenyl)-pyrazolo[1,5-a]pyrimidin-5-yl]-(6-methoxy-pyridin-3-yl)-amine], the IC50 is below 1000 nM.

With `COc1ccc(Nc2ccn3ncc(-c4cccc(NS(C)(=O)=O)c4)c3n2)cn1` [Example 197, N-{3-[5-(6-Methoxy-pyridin-3-ylamino)-pyrazolo[1,5-a]pyrimidin-3-yl]-phenyl}-methanesulfonamide], the IC50 lay within 1000 to 10000 nM. Regarding `COc1ccc(Nc2ccn3ncc(-c4cnn(C)c4)c3n2)cn1` [Example 198, (6-Methoxy-pyridin-3-yl)-[3-(1-methyl-1H-pyrazol-4-yl)-pyrazolo[1,5-a]pyrimidin-5-yl]-amine], the IC50 was below 1000 nM.

Turning to `COc1ccc(Nc2ccn3ncc(-c4cnn(Cc5ccccc5)c4)c3n2)cn1` [Example 199, [3-(1-Benzyl-1H-pyrazol-4-yl)-pyrazolo[1,5-a]pyrimidin-5-yl]-(6-methoxy-pyridin-3-yl)-amine], the IC50 lay in the range of 1000 to 10000 nM.

Take `COc1cccc(-c2cnn3ccc(Nc4ccc(NS(=O)(=O)c5ccc(C)cc5)cc4)nc23)c1` [Example 200, N-{4-[3-(3-Methoxy-phenyl)-pyrazolo[1,5-a]pyrimidin-5-ylamino]-phenyl}-4-methyl-benzenesulfonamide]: the IC50 was 1000 to 10000 nM.

Turning to `CC(=O)c1cccc(-c2cnn3ccc(Nc4ccc(NS(=O)(=O)c5ccc(C)cc5)cc4)nc23)c1` [Example 201, N-{4-[3-(3-Acetyl-phenyl)-pyrazolo[1,5-a]pyrimidin-5-ylamino]-phenyl}-4-methyl-benzenesulfonamide], the half-inhibitory concentration (IC50) was in the range of 1000 to 10000 nM.
